Experimental data from article PMC12381781, “Structural and functional insights into the selective inhibition of mutant tau aggregation by purpurin and oleocanthal in frontotemporal dementia” (Protein Science : A Publication of the Protein Society, 2025).

Biological target: T1, R2R3 (WT) tau peptide (Homo sapiens, UniProt P10636)
T1 construct: Peptides spanning R2R3—including PHF6 and PHF6*; purchased ProteoGenix (Schiltigheim, France); host or cells: chemical synthesis (custom peptide)
Assay: SPR titration cycle kinetics, immobilized R2R3 (WT) peptide
Format: binding
Method: SPR experiments were conducted using the Sierra® SPR‐24 Pro system (Bruker Daltonics, Bremen, Germany), featuring a gold‐coated microfluidic array (24 detection spots, 3 × 8 format). Data acquisition and kinetic analysis were performed using SPR Analyzer 4 software.
All experiments were conducted at 25°C using PBS (pH 7.4) supplemented with 0.05% Tween‐20 and 5% DMSO as the running buffer to ensure assay reproducibility. Assay components, including 96‐well microtiter plates (Part # 1862984; Burker) and Microplate and Reservoir Sealer (Part #1862985; Burker), were used for sample handling and were compatible with the Sierra SPR®‐24 Pro system (Bruker Daltonics, Billerica, MA, USA).
WT and mutant (P301L, V287I, and N279K) tau peptides were dissolved in 10 mM sodium acetate buffer (pH 5.0; Burker) and immobilized onto High‐Capacity Amine Sensor Surfaces (Part #1862614; Bruker) using the Amine Coupling Kit (Part #1862634; Bruker). The sensor surface was preconditioned with a Surface Elution Buffer (Part #1862656; Bruker Daltonics) and 0.1M HCl to remove contaminants and improve binding specificity. […]
PUR and OLC were prepared in PBS (pH 7.4) supplemented with 0.05% Tween‐20 and 5% DMSO. Compound interactions with tau peptides were pre‐screened using a concentration range of 1–100 μM, and subsequent binding kinetics were evaluated at optimized concentrations. […] Each analyte was sequentially injected, and association and dissociation phases were monitored to determine kinetic parameters.
SPR binding kinetics were assessed using the titration cycle kinetics (TCK) assay, which included consecutive association phases followed by a single dissociation phase. […] A reference blank injection was included for double referencing, and a single dissociation curve was recorded for the highest analyte concentration.
Sensorgrams were analyzed using the Kinetic Titration model, which was integrated into the global kinetic fitting model of the SPR Analyzer 4 software. […]

T1 sequence (P10636 592-653 limits assumed): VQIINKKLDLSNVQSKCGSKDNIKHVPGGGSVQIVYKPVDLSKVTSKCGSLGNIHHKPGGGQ

Structure (SMILES): O=C1c2ccccc2C(=O)c2c(O)c(O)cc(O)c21 [PUR, purpurin]
- koff (R2R3 WT): 0.000265 s⁻¹
- kon (R2R3 WT): 61 M⁻¹ s⁻¹
- Kd (R2R3 WT peptide immobilized, 25°C, PBS pH 7.4): 4.35 µM
